What was measured:
[1] = tested on: murine peritoneal macrophages (PEC); test: Secretion of M1 and M2 gene products by TMX-tolerant PEC (ELISA); format: cell-based, mice
Procedure: Based on the results of the gene expression analysis, performed by Real-Time PCR, selected gene products are validated at protein level, either by cytofluorimetry (surface molecules) or ELISA (secreted products).
The secretion of selected M1 and M2 gene products by TMX-tolerant murine peritoneal macrophages (PEC) was evaluated.
Cell Culture and treatments. Peritoneal exudate cells (PEC) were harvested from mice injected with 1 ml of 3% (w/v) thioglycollate medium (Difco, Detroit, Mich.) 4 days prior to isolation. PECs were incubated in RPMI 1640 medium, containing 10% fetal bovine serum, 2 mM glutamine and 100 U/ml of penicillin-streptomycin. The concentration for the different treatments were as follows: LPS (100 ng/ml) (Lipopolysaccharide from Salmonella Abortus Equi S-form, Alexis), CpG (1 μg/ml), Pam3CSK (2 μg/ml), Poly I:C (10 μg/ml), Loxorubine (100 μM), flagellin (100 ng/ml) IL-1β (20 ng/ml), TNF (20 ng/ml), IL-10 (20 ng/ml) (Peprotech), IFNγ (200 U/ml) (Peprotech). To induce TMX tolerance, cells were incubated in the presence of TMX (10 μM or 1 μM) for 20 hrs, washed and maintained in RPMI medium for 2 hrs and then re-challenged with TMX (10 μM) for 4 hrs. To induce TMX-tolerization (T/M) cells were treated with TMX for 20 hrs, washed and then maintained in medium for additional 6 hours, without TMX re-challenge. […]

[2] = tested on: murine peritoneal macrophages (PEC); test: Cross-tolerance toward TLR ligands and pro-inflammatory cytokines in PEC (gene expression); format: cell-based, mice
Procedure: In addition, tolerance is tested also in response to primary cytokines IL-1-beta and TNFalpha. This approach clarifies whether the TLR7 partial agonist compound 2 of Table 2 promotes cross-tolerance of different members of the TLR family, as well as of the IL-1 and TNF receptor systems, which has been regularly reported.
A second group of experiments was performed to evaluate the capacity of TMX to promote cross tolerance toward several TLR ligands and pro-inflammatory cytokines. PECs maintained in medium or pre-treated for 20 hours with 10 μM or 1 μM of TMX and re-challenged with several TLR agonists or pro-inflammatory cytokines were analyzed for the expression of selected M1 and M2 genes.
(§1) Cell Culture and treatments. Peritoneal exudate cells (PEC) were harvested from mice injected with 1 ml of 3% (w/v) thioglycollate medium (Difco, Detroit, Mich.) 4 days prior to isolation. PECs were incubated in RPMI 1640 medium, containing 10% fetal bovine serum, 2 mM glutamine and 100 U/ml of penicillin-streptomycin. The concentration for the different treatments were as follows: LPS (100 ng/ml) (Lipopolysaccharide from Salmonella Abortus Equi S-form, Alexis), CpG (1 μg/ml), Pam3CSK (2 μg/ml), Poly I:C (10 μg/ml), Loxorubine (100 μM), flagellin (100 ng/ml) IL-1β (20 ng/ml), TNF (20 ng/ml), IL-10 (20 ng/ml) (Peprotech), IFNγ (200 U/ml) (Peprotech). To induce TMX tolerance, cells were incubated in the presence of TMX (10 μM or 1 μM) for 20 hrs, washed and maintained in RPMI medium for 2 hrs and then re-challenged with TMX (10 μM) for 4 hrs. To induce TMX-tolerization (T/M) cells were treated with TMX for 20 hrs, washed and then maintained in medium for additional 6 hours, without TMX re-challenge. To induce M1-activation, cells were incubated in medium for 20 hrs, washed, left in medium for 2 hrs and finally stimulated with TMX (10 μM) for 4 hrs. Control cells (M/M) were cultured in medium for the entire period of the experiment. For gene expression analysis, total RNA was extracted from TMX treated and untreated cells with trizol (Invitrogen), according to the manufacturer's instructions. To analyze cytokines and chemokines production supernatants were collected 24 hrs after the second challenge with TMX.
Real-Time PCR. Total RNA was purified as previously described. Briefly, reverse transcription from 1 μg of RNA was performed using cDNA Archive kit (Applied Biosystem, NJ, USA). Real time PCR was performed using Power Syber Green PCR Master Mix (Applied Biosystem, NJ, USA) and detected by 7900HT Fast Real-Time System (Applied Biosystem, NJ, USA). […] Results were normalized to the expression of the housekeeping gene β-actin and then expressed as folds of upregulation, with respect to the control cell population.

[3] = tested on: Peritoneal macrophages (PEC); test: Tolerance and M1/M2 gene expression in murine peritoneal macrophages (Real-Time PCR); format: cell-based, mice
Procedure: Peritoneal macrophages (PEC) isolated from C57 black mice are used to test the tolerogenic effects of compound 2 of Table 2. The effects of this TLR7 ligand are analyzed in terms of gene expression (Real-Time PCR) of both pro-inflammatory (e.g. TNF-alpha, IL-1, IL-6) and anti-inflammatory (e.g. IL-10, TGF-beta) cytokines. Further, additional markers of M1 (e.g. iNOS, IL-12, IFN-beta, CXCL9, CXCL10) versus M2 (e.g. arginase I, Ym1, Fizz1, CCL17, CCL22, dectin 1, MGL) macrophage polarization is determined, in order to evaluate the polarizing activities of this compound. This analysis is instrumental to the understanding of mechanisms driving the tolerogenic action of compound 2 of Table 2, as an M2 polarized response is considered to be an alternative anti-inflammatory and “tolerogenic” macrophage program.
With respect to macrophage tolerance, cells are treated with two doses of compound 2 of Table 2 (1 microM and 10 microM) up to 20 hours and then re-challenged with agonists/ligands of different TLRs (TLR2, TLR4, TLR5, TLR9, TLR7, etc.), including the TLR7 unconjugated ligand 1V209 (free pharmacophore) at a concentration of 10 microM.
In a first run of experiments, the tolerogenic and polarizing ability of compound 2 of Table 2, which also is referred to hereafter as “TMX,” was evaluated. To induce tolerance, PEC were pre-treated for 20 hours with 10 μM or 1 μM TMX. Next, total RNA from control (M/M), TMX activated (M/T), 1V209 (free pharmacophore)-activated (M/I), tolerant (T/M) and tolerant PEC re-challenged with TMX (T/T) or with 1V209 (free pharmacophore) (T/I), were analyzed by RT PCR for the expression of representative M1 and M2 genes. […] However, most of the M1 genes transcripts were still induced (FIG. 1C, D).
as §1
Real-Time PCR. Total RNA was purified as previously described. Briefly, reverse transcription from 1 μg of RNA was performed using cDNA Archive kit (Applied Biosystem, NJ, USA). Real time PCR was performed using Power Syber Green PCR Master Mix (Applied Biosystem, NJ, USA) and detected by 7900HT Fast Real-Time System (Applied Biosystem, NJ, USA). Data were processed using the SDS2.2.2 software (Applied Biosystem, NJ, USA). Results were normalized to the expression of the housekeeping gene β-actin and then expressed as folds of upregulation, with respect to the control cell population.

[4] = tested on: Bleomycin-induced fibrosis in C57BU6 mice; test: Bleomycin-induced lung fibrosis in mice; format: in vivo; settings: 500 nmol/animal s.c. daily; day 7 and day 21; ELISA
Procedure: The efficacy of Compound 2 on mouse models of idiopathic lung fibrosis was studied as follows. Lung fibrosis was induced in 6-8 week old female C57BU6 mice. 0.8 U/kg of bleomycin (Hospira, Inc., Lake Forest, Ill.) was administered by intratracheal (i.t.) instillation on day 0. Bleomycin treated C57BU6 mice were divided into four groups (n 7 per group). Groups 2 and 4 were subcutaneously treated with Compound 2 at daily dose of 500 nmol/animal. Groups 1 and 3 were treated with saline control. Groups 1 and 2 were sacrificed on day 7 and groups 3 and 4 were sacrificed on day 21.
Measurements: Lung inflammation and fibrosis were evaluated by the following parameters: 1) cell infiltration to bronchial alveolar lavage (BAL); BAL were collected at the time of sacrifice and cell number was counted by hematocytometer. The infiltrated cells were differentiated by Wright-Giemsa staining. 2) BAL cytokines (IL-6, and IL-1b) by ELISA). 3) Lung histology by H&E staining and Sirius red staining (fibrosis). Histological samples were evaluated blindly.

[5] = PEC pre-treated 20 hours with 10 μM TMX, RT PCR

SMILES: COCCOc1nc(N)c2nc(O)n(Cc3ccc(C(=O)NCCOCCOCCOCCOCCOCCOCCn4cc(CCC(=O)O)nn4)cc3)c2n1 [Compound 2]
- IL-1p and IL-6 in the supernatant of TMX-tolerant macrophages ([1]; ELISA): increased levels
- state of tolerance: M1 and M2 cytokines production ([1]; only 10 microM TMX, ELISA of supernatants): low M1 and high M2 cytokines production
- M2 genes expression on re-challenge with different TLR agonists ([2]; PECs pre-treated with TMX): triggered the expression of M2 genes
- M1 genes expression in response to TLR ligands ([2]; PECs tolerized by 20 hours pre-treatment with 10 μM TMX): inability to up-regulate M1 genes expression
- cross-tolerance ([2]; TMX 10 microM, exception CXCL10 following re-challenge with CpG, poly I:C, LPS): observed
- IL-10 expression following re-challenge of TMX-tolerant macrophages with TNF ([2]; TNF 20 ng/ml): still induced
- M2 gene expression ([3]; 1 μM TMX pre-treatment, except for IL-10): did not enhance
- M1 (TNF-alpha, IL-12, IFN-beta, CXCL10) gene expression in state of tolerance [3, 5]: low
- selected M2 genes (IL-10, TGFβ, Arg I, CCL17, CCL22) in state of tolerance [3, 5]: high levels
- M2 markers Ym1, Fizz1, MGL2 gene transcripts ([3]; PEC, TMX): No significant modulation
- induction of tolerance ([3]; pre-treatment with 1 μM TMX, except for IL-12p40): unable to induce tolerance
- macrophage activation ([3]; prolonged exposure of PEC to high concentration of TMX): M2 skewed activation
- levels of IL-6 and IL-1b cytokines in BAL [4]: under the detection levels of ELISA

Reference: US20120083473A1, “TREATMENT OF CONDITIONS BY TOLL-LIKE RECEPTOR MODULATORS” (priority 2010, published 2012)
